# Data as given in patent publication US10336761B2, “TGFβ receptor antagonist” (BRISTOL-MYERS SQUIBB COMPANY, priority 2015, dated 2019).
# Biological target: HIS-TGFβR1 T204D (Homo sapiens (Human), UniProt P36897, T204D)
# Test: HTRF probe-displacement assay, HIS-TGFβR1 T204D
# Format: binding
# Settings: 1 hour at room temperature
# Chain of HIS-TGFβR1 T204D (P36897 34-503 T204D): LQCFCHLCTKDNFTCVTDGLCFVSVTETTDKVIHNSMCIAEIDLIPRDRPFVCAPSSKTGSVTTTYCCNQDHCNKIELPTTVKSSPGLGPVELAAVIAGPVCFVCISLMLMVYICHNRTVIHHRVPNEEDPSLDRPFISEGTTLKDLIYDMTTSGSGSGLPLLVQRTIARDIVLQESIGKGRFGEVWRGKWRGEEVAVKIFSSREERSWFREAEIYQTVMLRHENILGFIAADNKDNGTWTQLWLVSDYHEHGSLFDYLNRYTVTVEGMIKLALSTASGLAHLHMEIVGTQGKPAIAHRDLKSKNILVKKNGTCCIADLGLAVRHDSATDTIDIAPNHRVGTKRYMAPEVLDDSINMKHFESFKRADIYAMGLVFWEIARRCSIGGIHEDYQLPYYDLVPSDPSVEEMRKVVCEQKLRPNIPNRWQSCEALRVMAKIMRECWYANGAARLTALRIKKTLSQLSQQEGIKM
row,SMILES,IC50 [nM]
1,"COc1cccc(-c2nc(Nc3ccnc(NCCN4CCC(O)CC4)c3)c3cccn3n2)n1 [Example 132, 1-{2-[(4-{[2-(6-methoxypyridin-2-yl)pyrrolo[2,1-f][1,2,4]triazin-4-yl]amino}pyridin-2-yl)amino]ethyl}piperidin-4-ol]",700
2,"CN1CCN(CCCNCc2ccn3nc(-c4ccccn4)nc(Nc4ccncc4F)c23)CC1 [Example 283, 3-fluoro-N-[5-({[3-(4-methylpiperazin-1-yl)propyl]amino}methyl)-2-(pyridin-2-yl)pyrrolo[2,1-f][1,2,4]triazin-4-yl]pyridin-4-amine]",12
3,"O=C(N[C@H]1CCCC[C@@H]1O)c1cnccc1Nc1nc(-c2cccc(C(F)F)n2)nn2cccc12 [Example 175, 4-({2-[6-(difluoromethyl)pyridin-2-yl]pyrrolo[2,1-f][1,2,4]triazin-4-yl}amino)-N-[(1S,2S)-2-hydroxycyclohexyl]pyridine-3-carboxamide]",480
4,"O=C(NCCN1CCCCC1)c1cnccc1Nc1nc(-c2ccccn2)nn2cccc12 [Example 144, N-[2-(piperidin-1-yl)ethyl]-4-{[2-(pyridin-2-yl)pyrrolo[2,1-f][1,2,4]triazin-4-yl]amino}pyridine-3-carboxamide]",25
5,"CC(=O)Nc1cc(Nc2nc(-c3ccc(F)c(C(F)F)n3)nn3cccc23)ccn1 [Example 11, N-[4-({2-[6-(difluoromethyl)-5-fluoropyridin-2-yl]pyrrolo[2,1-f][1,2,4]triazin-4-yl}amino)pyridin-2-yl]acetamide]",6.1
6,"CC(C)n1cc(NCc2ccn3nc(-c4ccccn4)nc(Nc4ccncc4F)c23)cn1 [Example 302, 3-fluoro-N-[5-({[1-(propan-2-yl)-1H-pyrazol-4-yl]amino}methyl)-2-(pyridin-2-yl)pyrrolo[2,1-f][1,2,4]triazin-4-yl]pyridin-4-amine]",1.7
7,"Cc1cccc(-c2nc(Nc3ccncc3C(=O)NCCN3CCCC3)c3cccn3n2)n1 [Example 152, 4-{[2-(6-methylpyridin-2-yl)pyrrolo[2,1-f][1,2,4]triazin-4-yl]amino}-N-[2-(pyrrolidin-1-yl)ethyl]pyridine-3-carboxamide]",5.3
8,"Cc1nc2ccc(NCc3ccn4nc(-c5ccccn5)nc(Nc5ccncc5F)c34)cc2s1 [Example 295, N-({4-[(3-fluoropyridin-4-yl)amino]-2-(pyridin-2-yl)pyrrolo[2,1-f][1,2,4]triazin-5-yl}methyl)-2-methyl-1,3-benzothiazol-6-amine]",30
9,"Fc1cnccc1Nc1nc(-c2cccc(OC(F)(F)F)n2)nn2cccc12 [Example 289, 3-fluoro-N-{2-[6-(trifluoromethoxy)pyridin-2-yl]pyrrolo[2,1-f][1,2,4]triazin-4-yl}pyridin-4-amine]",3
10,"Fc1cnccc1Nc1nc(-c2ccccn2)nn2ccc(CNCC3CCC3)c12 [Example 271, N-(5-{[(cyclobutylmethyl)amino]methyl}-2-(pyridin-2-yl)pyrrolo[2,1-f][1,2,4]triazin-4-yl)-3-fluoropyridin-4-amine]",1.2
11,"CN1CCN(Cc2ccn3nc(-c4ccccn4)nc(Nc4ccncc4F)c23)CC1 [Example 127, 3-fluoro-N-{5-[(4-methylpiperazin-1-yl)methyl]-2-(pyridin-2-yl)pyrrolo[2,1-f][1,2,4]triazin-4-yl}pyridin-4-amine]",9.1
12,"CS(=O)(=O)Nc1cc(Nc2nc(-c3cccc(C(F)(F)F)n3)nn3cccc23)ccn1 [Example 318, N-[4-({2-[6-(trifluoromethyl)pyridin-2-yl]pyrrolo[2,1-f][1,2,4]triazin-4-yl}amino)pyridin-2-yl]methanesulfonamide]",4000
13,"COc1cccc(-c2nc(Nc3ccncc3F)c3cc(NC(=O)CNC(=O)OC(C)(C)C)cn3n2)n1 [Example 108, tert-butyl N-[({4-[(3-fluoropyridin-4-yl)amino]-2-(6-methoxypyridin-2-yl)pyrrolo[2,1-f][1,2,4]triazin-6-yl}carbamoyl)methyl]carbamate]",330
14,"CC1(NCc2ccn3nc(-c4ccccn4)nc(Nc4ccncc4F)c23)CCOCC1 [Example 242, 3-fluoro-N-(5-{[(4-methyloxan-4-yl)amino]methyl}-2-(pyridin-2-yl)pyrrolo[2,1-f][1,2,4]triazin-4-yl)pyridin-4-amine]",< 0.76
15,"CS(=O)(=O)Nc1cccc(-c2nc(Nc3ccncc3)c3cccn3n2)n1 [Example 8, N-(6-{4-[(pyridin-4-yl)amino]pyrrolo[2,1-f][1,2,4]triazin-2-yl}pyridin-2-yl)methanesulfonamide]",12
16,"Fc1cnccc1Nc1nc(-c2ccccn2)nn2ccc(CNC34CC5CC(CC(C5)C3)C4)c12 [Example 282, N-(5-{[(adamantan-1-yl)amino]methyl}-2-(pyridin-2-yl)pyrrolo[2,1-f][1,2,4]triazin-4-yl)-3-fluoropyridin-4-amine]",15
17,"O=C(c1cnccc1Nc1nc(-c2cccc(C(F)F)n2)nn2cccc12)N1CCC(F)(F)CC1 [Example 203, N-{2-[6-(difluoromethyl)pyridin-2-yl]pyrrolo[2,1-f][1,2,4]triazin-4-yl}-3-(4,4-difluoropiperidine-1-carbonyl)pyridin-4-amine]",750
18,"O=C(NCc1nccs1)c1cnccc1Nc1nc(-c2cccc(C(F)F)n2)nn2cccc12 [Example 183, 4-({2-[6-(difluoromethyl)pyridin-2-yl]pyrrolo[2,1-f][1,2,4]triazin-4-yl}amino)-N-(1,3-thiazol-2-ylmethyl)pyridine-3-carboxamide]",44
19,"COc1cccc(-c2nc(Nc3ccncc3C(N)=O)c3cccn3n2)n1 [Example 98, 4-{[2-(6-methoxypyridin-2-yl)pyrrolo[2,1-f][1,2,4]triazin-4-yl]amino}pyridine-3-carboxamide]",9.1
20,"COC(=O)Nc1cc(Nc2nc(-c3cccc(OC)n3)nn3cccc23)ccn1 [Example 68, Methyl N-(4-{[2-(6-methoxypyridin-2-yl)pyrrolo[2,1-f][1,2,4]triazin-4-yl]amino}pyridin-2-yl)carbamate]",5
21,"COc1cccc(-c2nc(Nc3ccncc3)c3c(Cl)ccn3n2)n1 [Example 91, N-[5-chloro-2-(6-methoxypyridin-2-yl)pyrrolo[2,1-f][1,2,4]triazin-4-yl]pyridin-4-amine]",49
22,"COc1cccc(-c2nc(Nc3ccncn3)c3cccn3n2)n1 [Example 67, N-[2-(6-methoxypyridin-2-yl)pyrrolo[2,1-f][1,2,4]triazin-4-yl]pyrimidin-4-amine]",55
23,"COc1cccc(-c2nc(Nc3ccncc3F)c3c(CCN4CCN(C)CC4)ccn3n2)n1 [Example 112, 3-fluoro-N-[2-(6-methoxypyridin-2-yl)-5-[2-(4-methylpiperazin-1-yl)ethyl]pyrrolo[2,1-f][1,2,4]triazin-4-yl]pyridin-4-amine]",360
24,"CC(=O)Nc1cc(Nc2nc(-c3ccc(F)cn3)nn3cccc23)ccn1 [Example 227, N-(4-{[2-(5-fluoropyridin-2-yl)pyrrolo[2,1-f][1,2,4]triazin-4-yl]amino}pyridin-2-yl)acetamide]",3.6

# The remaining compounds from weak to strong by IC50, led by results:
row,IC50 [nM],SMILES
1,1700,"COc1cccc(-c2nc(Nc3ccncc3F)c3cc(CNCC(C)(C)O)cn3n2)n1 [Example 207, 1-[({4-[(3-fluoropyridin-4-yl)amino]-2-(6-methoxypyridin-2-yl)pyrrolo[2,1-f][1,2,4]triazin-6-yl}methyl)amino]-2-methylpropan-2-ol]"
2,80,"CC(=O)Nc1nccc(Nc2nc(-c3cccc(C(F)(F)F)n3)nn3cccc23)c1F [Example 20, N-[3-fluoro-4-({2-[6-(trifluoromethyl)pyridin-2-yl]pyrrolo[2,1-f][1,2,4]triazin-4-yl}amino)pyridin-2-yl]acetamide]"
3,69,"Fc1cc(Nc2nc(-c3ccccn3)nn3cccc23)ccn1 [Example 55, 2-fluoro-N-[2-(pyridin-2-yl)pyrrolo[2,1-f][1,2,4]triazin-4-yl]pyridin-4-amine]"
4,47,"CC(=O)Nc1cc(Nc2nc(-c3ccc(C(F)(F)F)cn3)nn3cccc23)ccn1 [Example 332, N-[4-({2-[5-(trifluoromethyl)pyridin-2-yl]pyrrolo[2,1-f][1,2,4]triazin-4-yl}amino)pyridin-2-yl]acetamide]"
5,30,"Cc1cccc(-c2nc(Nc3ccncc3C(=O)N3CCOCC3)c3cccn3n2)n1 [Example 163, N-[2-(6-methylpyridin-2-yl)pyrrolo[2,1-f][1,2,4]triazin-4-yl]-3-(morpholine-4-carbonyl)pyridin-4-amine]"
6,10,"O=C(CN1CC[C@H](O)C1)Nc1cc(Nc2nc(-c3cccc(C(F)(F)F)n3)nn3cccc23)ccn1 [Example 325, 2-[(3S)-3-hydroxypyrrolidin-1-yl]-N-[4-({2-[6-(trifluoromethyl)pyridin-2-yl]pyrrolo[2,1-f][1,2,4]triazin-4-yl}amino)pyridin-2-yl]acetamide]"
7,6.9,"CSc1nccc(-c2nc(Nc3ccncc3)c3cccn3n2)n1 [Example 215, N-{2-[2-(methylsulfanyl)pyrimidin-4-yl]pyrrolo[2,1-f][1,2,4]triazin-4-yl}pyridin-4-amine]"
8,1.3,"Fc1cnccc1Nc1nc(-c2ccccn2)nn2ccc(CN3CCC(F)(F)CC3)c12 [Example 27, N-{5-[(4,4-difluoropiperidin-1-yl)methyl]-2-(pyridin-2-yl)pyrrolo[2,1-f][1,2,4]triazin-4-yl}-3-fluoropyridin-4-amine]"
9,1.1,"FC(F)c1cccc(-c2nc(Nc3ccncc3Cl)c3cccn3n2)n1 [Example 80, 3-chloro-N-{2-[6-(difluoromethyl)pyridin-2-yl]pyrrolo[2,1-f][1,2,4]triazin-4-yl}pyridin-4-amine]"
10,0.85,"O[C@@H]1CCN(Cc2ccn3nc(-c4ccccn4)nc(Nc4ccncc4F)c23)C1 [Example 233, (3R)-1-({4-[(3-fluoropyridin-4-yl)amino]-2-(pyridin-2-yl)pyrrolo[2,1-f][1,2,4]triazin-5-yl}methyl)pyrrolidin-3-ol]"
11,0.39,"Fc1cccc(-c2nc(Nc3ccncc3Cl)c3cccn3n2)n1 [Example 70, 3-chloro-N-[2-(6-fluoropyridin-2-yl)pyrrolo[2,1-f][1,2,4]triazin-4-yl]pyridin-4-amine]"
